Data from US11396517B1, “Exo-aza spiro inhibitors of menin-MLL interaction” (Janssen Pharmaceutica NV, priority 2017, dated 2022).
Read-outs that look alike come from different tables or passages of the source.

Columns and labels:
[1] = target: T1, menin (Homo sapiens, UniProt O00255, T541A); experiment: Menin/MLL homogenous time-resolved fluorescence (HTRF) assay; type: binding
T1 construct: Menin (a.a. 1-610-6×his tag)
T1 sequence (O00255 with tags, fused parts or gaps T541A): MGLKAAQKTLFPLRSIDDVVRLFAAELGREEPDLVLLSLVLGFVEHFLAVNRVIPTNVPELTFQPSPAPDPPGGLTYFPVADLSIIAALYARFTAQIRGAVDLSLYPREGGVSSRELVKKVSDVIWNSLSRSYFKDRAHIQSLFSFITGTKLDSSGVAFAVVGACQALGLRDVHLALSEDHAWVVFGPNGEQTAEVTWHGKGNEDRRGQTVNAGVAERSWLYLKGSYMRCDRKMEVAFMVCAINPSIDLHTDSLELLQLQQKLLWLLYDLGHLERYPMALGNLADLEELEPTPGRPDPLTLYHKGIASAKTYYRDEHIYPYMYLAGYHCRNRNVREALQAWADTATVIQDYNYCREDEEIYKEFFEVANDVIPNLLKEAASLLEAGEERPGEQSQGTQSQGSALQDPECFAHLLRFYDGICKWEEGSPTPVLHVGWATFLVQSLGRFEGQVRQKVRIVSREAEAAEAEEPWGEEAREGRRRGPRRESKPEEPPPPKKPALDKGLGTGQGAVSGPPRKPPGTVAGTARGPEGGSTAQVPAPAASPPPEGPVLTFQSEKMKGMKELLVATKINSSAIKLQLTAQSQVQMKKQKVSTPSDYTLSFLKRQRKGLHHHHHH
Method in brief: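 Displacement of 75 nM FITC-MBM1 from terbium-cryptate-labeled His-tagged menin 1-610 ([…]) was read as the 520/490 nm HTRF ratio. Compound (11-point, 3-fold series) got 5 min with menin before peptide, then 15 min at ambient; 0.5% DMSO, Tris pH 7.5.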

[2] = test system: MOLM14; experiment: Proliferation assay B (spheroid assay) MOLM14; type: cell-based, human; conditions: MOLM14 cells, confluence at day 8, absolute IC50, read-out: (3b) Spheroid assay MOLM14 (IC50(μM)) Assay B
Method: 3b) Proliferation Assay B
The anti-proliferative effect of menin/MLL protein/protein interaction inhibitor test compounds was assessed in human leukemia cell lines. The cell lines MV-4-11 and MOLM14 harbor MILL translocations and express the MILL fusion proteins MLL-AF4 and MLL-AF9, respectively, as well as the wildtype protein from the second allele. […] K562 was used as a control cell line containing two MLL wildtype alleles in order to exclude compounds that display general cytotoxic effects.
MV-4-11 and MOLM14 were cultured in RPMI-1640 (Sigma Aldrich) supplemented with 10% fetal bovine serum (HyClone), 2 mM L-glutamine (Sigma Aldrich) and 50 μg/ml gentamycin (Gibco). K562 were propagated in RPMI-1640 (Sigma Aldrich) supplemented with 20% fetal bovine serum (HyClone), 2 mM L-glutamine (Sigma Aldrich) and 50 μg/ml gentamycin (Gibco).
In order to assess the anti-proliferative effects, 1,500 MV-4-11, 300 MOLM14 cells or 750 K562 cells were seeded in 200 μl media per well in 96-well round bottom, ultra-low attachment plates (Costar, catalogue number 7007). Cell seeding numbers were chosen based on growth curves to ensure linear growth throughout the experiment. Test compounds were added at different concentrations and the DMSO content was normalized to 0.3%. Cells were incubated for 8 d at 37° C. and 5% CO2. Spheroid like growth was measured in real-time by live-cell imaging (IncuCyteZOOM, Essenbio, 4× objective) acquiring images at day 8. Confluence (%) as a measure of spheroid size was determined using an integrated analysis tool.
In order to determine the effect of the test compounds over time, the confluence in each well as a measure of spheroid size, was calculated. Confluence […] at the beginning of the experiment (t=0) was used as baseline for the calculation.
Absolute IC50 values were calculated as percent change in confluence as follows:
LC=Low Control: cells treated with 1 μM of the cytotoxic agent staurosporin
HC=High Control: Mean confluence (%) (DMSO treated cells) % Effect=100−(100*(Sample−LC)/(HC−LC))
To determine the IC50 a curve is fitted to the plot of % Effect vs Log 10 compound concentration using a sigmoidal fit with a variable slope and fixing the maximum to 100% and the minimum to 0%.

[3] = location 2, read-out: (2) location 2 Menin HTRF assay (IC50 (nM))
[4] = location 1, read-out: (2) location 1 Menin HTRF assay (IC50 (nM))

SMILES | IC50 [1, 3] [nM] | IC50 ([2]; Homo sapiens, MOLM-14, 192 h) [µM] | IC50 [2] [µM] | IC50 [1, 4] [nM]
CS(=O)(=O)N1CCN(C(=O)c2ccc(NC3CC4(CCN(c5ncnc6sc(CC(F)(F)F)cc56)C4)C3)cc2)CC1 (single isomer, unassigned) [Compound 178] | 127 | > 3.75 | – | –
COC1CCN(C(=O)c2ccc(NC3CC4(CCN(c5ncnc6sc(CC(F)(F)F)cc56)C4)C3)cc2)CC1 (single isomer, unassigned) [Compound 183] | 82 | > 3.75 | – | –
O=C(c1ccc(NC2CC3(CCN(c4ncnc5sc(CC(F)(F)F)cc45)C3)C2)cc1)N1CCNCC1 (single isomer, unassigned) [Compound 187] | 1580 | > 3.75 | – | –
CS(=O)(=O)N1CCN(CCNC(=O)c2ccc(NC3CC4(CCN(c5ncnc6sc(CC(F)(F)F)cc56)C4)C3)cc2)CC1 (single isomer, unassigned) [Compound 189] | 143 | > 3.75 | – | –
CS(=O)(=O)N1CCN(CCNC(=O)c2ccc(NC3CC4(CCN(c5ncnc6sc(CC(F)(F)F)cc56)C4)C3)cc2)CC1 (single isomer, unassigned) [Compound 190] | 9.2 | – | 2.1 | –
CNC(=O)c1ccc(NC2CC3(CCN(c4ncnc5sc(CC(F)(F)F)cc45)C3)C2)cc1F (single isomer, unassigned) [Compound 205] | 2.2 | 1.02 | – | –
CNC(=O)c1ccc(NC2CC3(CCN(c4ncnc5sc(CC(F)(F)F)cc45)C3)C2)cn1 (single isomer, unassigned) [Compound 217] | 3.7 | – | 1.69 | –
CNC(=O)c1ccc(NC2CC3(CCN(c4ncnc5sc(CC(F)(F)F)cc45)C3)C2)cn1 (single isomer, unassigned) [Compound 218] | 64.9 | – | > 3.75 | –
O=S(=O)(c1ccc(NC2CC3(CCN(c4ncnc5sc(CC(F)(F)F)cc45)C3)C2)cc1)N1CCOCC1 (single isomer, unassigned) [Compound 219] | 2.6 | 2.4 | – | –
CNC(=O)c1ccc(NC2CC3(CCN(c4ncnc5sc(CC(F)(F)F)cc45)C3)C2)c(F)c1F (single isomer, unassigned) [Compound 227] | 80.2 | – | > 3.75 | –
CNC(=O)c1cc(F)c(NC2CC3(CCN(c4ncnc5sc(CC(F)(F)F)cc45)C3)C2)c(F)c1 (single isomer, unassigned) [Compound 228] | 84.2 | – | > 3.75 | –
CNC(=O)c1cc(F)c(NC2CC3(CCN(c4ncnc5sc(CC(F)(F)F)cc45)C3)C2)c(F)c1 (single isomer, unassigned) [Compound 229] | 0.9 | – | 1 | –
CNC(=O)c1ccc(NC2CC3(CCN(c4ncnc5sc(CC(F)(F)F)cc45)C3)C2)cc1C1CCN(C)CC1 (single isomer, unassigned) [Compound 230] | 489 | > 3.75 | – | –
CN1CCC(c2cc(NC3CC4(CCN(c5ncnc6sc(CC(F)(F)F)cc56)C4)C3)ccc2C(=O)N2CCOCC2)CC1 (single isomer, unassigned) [Compound 232] | 667 | > 3.75 | – | –
CC(C#N)(C#N)c1ccc(NC2CC3(CCN(c4ncnc5sc(CC(F)(F)F)cc45)C3)C2)cc1 (single isomer, unassigned) [Compound 234] | 116 | – | > 3.75 | –
CC(C#N)(C#N)c1ccc(NC2CC3(CCN(c4ncnc5sc(CC(F)(F)F)cc45)C3)C2)cc1 (single isomer, unassigned) [Compound 235] | 4.1 | – | 1.53 | –
CN(C)CCNC(=O)c1ccc(NC2CC3(CCN(c4ncnc5sc(CC(F)(F)F)cc45)C3)C2)c(F)c1 (single isomer, unassigned) [Compound 242] | 74.6 | – | > 3.75 | –

SMILES | IC50 [1, 3] [nM] | IC50 ([2]; Homo sapiens, MOLM-14, 192 h) [µM] | IC50 [2] [µM] | IC50 [1, 4] [nM]
CN(C)CCNC(=O)c1ccc(NC2CC3(CCN(c4ncnc5sc(CC(F)(F)F)cc45)C3)C2)c(F)c1 (single isomer, unassigned) [Compound 243] | 2.9 | – | 1.11 | –
CNC(=O)c1c(F)cc(NC2CC3(CCN(c4ncnc5sc(CC(F)(F)F)cc45)C3)C2)cc1F (single isomer, unassigned) [Compound 245] | 7.7 | > 3.75 | – | –
CN(C)CCNC(=O)c1ccc(NC2CC3(CCN(c4ncnc5sc(CC(F)(F)F)cc45)C3)C2)nc1 (single isomer, unassigned) [Compound 253] | 235 | – | > 3.75 | –
O=C(c1cnc(NC2CC3(CCN(c4ncnc5sc(CC(F)(F)F)cc45)C3)C2)nc1)N1CCOCC1 (single isomer, unassigned) [Compound 258] | 108 | > 3.75 | – | –
FC(F)(F)Cc1cc2c(N3CC4(CC[C@H](Nc5ccc(-c6cn[nH]c6)cc5)C4)C3)ncnc2s1 (single isomer, unassigned) [Compound 304] | 17.3 | > 3.75 | – | –
CC(=O)Nc1ccc(NC2CC3(CCN(c4ncnc5sc(CC(F)(F)F)cc45)C3)C2)cc1 (single isomer, unassigned) [Compound 331] | 3.4 | 3.38 | – | –
O=C(c1ccc(NC2CC3(CCN(c4ncnc5sc(CC(F)(F)F)cc45)C3)C2)c(F)c1)N1CCOCC1 (single isomer, unassigned) [Compound 352] | 139 | – | > 3.75 | –
O=C(c1ccc(NC2CC3(CCN(c4ncnc5sc(CC(F)(F)F)cc45)C3)C2)c(F)c1)N1CCOCC1 (single isomer, unassigned) [Compound 353] | 17.3 | > 3.75 | – | –
CNC(=O)Cn1cc(NC2CC3(CCN(c4ncnc5sc(CC(F)(F)F)cc45)C3)C2)cn1 (single isomer, unassigned) [Compound 355] | 1460 | > 3.75 | – | –
CNC(=O)Cn1cc(NC2CC3(CCN(c4ncnc5sc(CC(F)(F)F)cc45)C3)C2)cn1 (single isomer, unassigned) [Compound 356] | 2680 | – | > 3.75 | –
N#CCn1c(=O)[nH]c2cc(NC3CC4(CCN(c5ncnc6sc(CC(F)(F)F)cc56)C4)C3)ccc21 (single isomer, unassigned) [Compound 357] | 3.1 | > 3.75 | – | –
N#CCn1c(=O)[nH]c2cc(NC3CC4(CCN(c5ncnc6sc(CC(F)(F)F)cc56)C4)C3)ccc21 (single isomer, unassigned) [Compound 358] | 5.3 | – | 3.5 | –
NC(=O)Cn1c(=O)[nH]c2cc(NC3CC4(CCN(c5ncnc6sc(CC(F)(F)F)cc56)C4)C3)ccc21 (single isomer, unassigned) [Compound 359] | 16.2 | > 3.75 | – | –
NC(=O)Cn1c(=O)[nH]c2cc(NC3CC4(CCN(c5ncnc6sc(CC(F)(F)F)cc56)C4)C3)ccc21 (single isomer, unassigned) [Compound 360] | 448 | – | > 3.75 | –
CN(C(=O)c1ccc(NC2CC3(CCN(c4ncnc5sc(CC(F)(F)F)cc45)C3)C2)cc1)S(C)(=O)=O (single isomer, unassigned) [Compound 363] | 46 | 2.1 | – | 44.1
CN(C(=O)c1ccc(NC2CC3(CCN(c4ncnc5sc(CC(F)(F)F)cc45)C3)C2)cc1)S(C)(=O)=O (single isomer, unassigned) [Compound 364] | 1.3 | – | 1.1 | 0.8
